Holding throughout (assay): LC-MS product assay, Michaelis-Menten fit
Common to all, as to assay type: biochemical, Lycium barbarum
What all share (settings): 2.5 mM UDP-Glc, 1 mM MgCl2, 10 mM HEPES pH 7.0, 30 °C

The subject of one data set is T1, LbUGT2.
T1 construct: full length; GST fusion (pGEX-2TK) from E. coli Rosetta (DE3)
The source says: LC-MS product assay, Michaelis-Menten fit on LbUGT2

In the next data set the test system is T2, LbUGT4.
T2 construct: full length; GST fusion (pGEX-2TK) from E. coli Rosetta (DE3)
The source says:
LC-MS product assay, Michaelis-Menten fit on LbUGT4

For a further data set, the system named is T3, LbUGT3.
T3 construct: full length (482 residues by printed domain borders); GST fusion (pGEX-2TK) from E. coli Rosetta (DE3) for assays; crystal protein with GST-His tag removed by TEV
The source says:
LC-MS product assay, Michaelis-Menten fit on LbUGT3

Substrate in data set [1]: O=C(/C=C/c1ccc(O)c(O)c1)NCCCNCCCCNC(=O)CCc1ccc(O)c(O)c1
The source says:
LC-MS product assay, Michaelis-Menten fit on LbUGT1

Usually Km stands for the concentration of substrate that gives half-maximal velocity. For `O=C(/C=C/c1ccc(O)c(O)c1)NCCCNCCCCNC(=O)CCc1ccc(O)c(O)c1` [compound 1, N^1-caffeoyl-N^10-dihydrocaffeoylspermidine], the Km with LbUGT2 came out at 762 µM; with LbUGT4, 901 µM; with LbUGT3, 325 µM.

B1: LbUGT1 (Lycium barbarum) (protein)
chain: LTTKAELVFIPSPGAGHLISAIEIAKLILNRDERLCISVLIMKLPMDFGVQSYVASLSSSPRLQFVDITLDEKTVAGLLKNKESFFTDFIQGHKPKVKDFIHNTSFSKSGSGFSRLAGFVLDMFCTSMIDVASEFSVPSYIFLTSNAAFLALCYHFESLKKEHHIDTSKYKDSDEELTIPGFKNPYPGKFLPRLTTDQTTATTLFFDSVTRFKETKGIMVNTFAELEPFALQSLLVPKIYPVGPVVNFKEGGHGRNSESETESIIKWLDDQPESSVVFLCFGSMGSFDAEQIEEIAVALECSGHRFLWSLRRPPPKGKMELPSNYEDFQEVLPEGFIERTNGVGKVIGWAPQVAVLSHPAVGGFVSHCGWNSVLESLCFGVPIGAWPQYAEQQMNAFELVKQLGLAVEIRMDYFKDFEGKHGPVEIVTAKEIASGIRQLMADGEENEIRKRAKEMKEKSSAAMKEGGSSYASLGLLIEDVISNIS
notes: full length (485 residues by printed domain borders); GST fusion (pGEX-2TK) from E. coli Rosetta (DE3) for assays; crystal protein with MBP-His tag removed by TEV
For orientation: kcat means the number of substrate molecules converted per active site and unit of time at saturation. Broadly, the kcat/Km is the second-order rate constant that governs catalysis at low substrate concentration. Consider B1, for which, in data set [1], the Km came to 259.4 µM, the turnover number (kcat) worked out at 0.0057 s⁻¹ and the kcat/Km was found to be 22.1 M⁻¹ s⁻¹.

The record behind these values is PMC11139883, “Functional and structural dissection of glycosyltransferases underlying the glycodiversity of wolfberry-derived bioactive ingredients lycibarbarspermidines” (Nature Communications, 2024).
